Counter-ions that a name gives are not always drawn.
Molecular target: T1, human GPR120 (Homo sapiens, UniProt Q5NUL3)
T1 construct: expressed in transfected cells; host or cells: CHO-K1
T1 sequence (Q5NUL3 1-361): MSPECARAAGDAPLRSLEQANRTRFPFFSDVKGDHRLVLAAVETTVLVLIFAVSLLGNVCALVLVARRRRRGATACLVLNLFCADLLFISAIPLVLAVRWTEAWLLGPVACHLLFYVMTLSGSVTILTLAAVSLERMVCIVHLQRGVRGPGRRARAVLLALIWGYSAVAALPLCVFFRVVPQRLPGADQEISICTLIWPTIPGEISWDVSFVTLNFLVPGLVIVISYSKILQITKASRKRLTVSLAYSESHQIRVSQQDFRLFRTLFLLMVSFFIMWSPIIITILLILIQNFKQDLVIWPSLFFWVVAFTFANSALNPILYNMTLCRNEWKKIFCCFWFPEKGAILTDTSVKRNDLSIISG
Test: Human GPR120 IP1 assay (inositol phosphate turnover)
Type: cell-based
Settings: IP1 accumulation in CHO-K1 cells stably expressing the short form of human GPR120
From the text: The binding of small molecule agonists to the G-protein-coupled receptor GPR120 activates phospholipase C, and leads to the generation of inositol 1,4,5-trisphosphate (InsP3 or IP3). IP3 is subsequently de-phosphorylated to IP1, which accumulates in cells and is stable in the presence of lithium chloride.
In the present method, agonist-induced activation of the human and rat GPR120 receptor was monitored by measuring the accumulation of IP1 in CHO-K1 cells that were stably expressing the short form of human GPR120 (Accession #NM_001195755) or HEK293 cells stably expressing rat GPR120 (Accession #NM_001047088). Following agonist addition, GPR120 activation and subsequent accumulation of IP1 was measured using a homogeneous Time Resolved Fluorescence-based ELISA commercially available from CisBio (IP-one ELISA Kit). The IP-One ELISA was a competitive immunoassay which uses IP1 labeled with […] and a terbium cryptate-labeled anti-IP1 monoclonal antibody. […] The signal loss was then back calculated to IP1 concentration using an IP1 standard curve. Determination of IP1 concentration was a direct measure of GPR120 activation and was used to determine compound potency (EC50).
Human GPR120 stable cell-lines were generated in CHO cells. The expression plasmids were transfected using lipofectamine (Life Technologies) following manufacturer's instructions. Stable cell-lines were generated following drug selection and single cell cloning. Rat GPR120 stable cell-lines were generated in HEK cells using the Jump-In™ cell engineering platform (Life Technologies) following manufacturer's instructions. Stable cell-lines were generated following drug selection and single cell cloning.
The assay was performed in 384-well format. CHO cells stably expressing human GPR120 were plated at 20,000 cells per well in growth medium (DMEM/F12, 10% fetal calf serum). HEK293 cells stably expressing rat GPR120 were plated at […] per well in growth medium (DMEM, 10% fetal calf serum). Cell plates were then incubated 16 hours at 37 degrees in a 5% CO2 incubator. Measurement of Inositol Phosphate Turnover (IP1) was performed using the CisBio IP-One kit (Part number 62IPAPEB). After the 16 hour incubation, the growth media was removed by centrifugation using the BlueWasher (AusWasher GUI Ver. v1.0.1.8) Protocol #21-“Light Dry” and 10 μl of stimulation buffer (prepared as described in the kit) was added to each well. In a separate plate, compounds were diluted in DMSO (200-fold over the final concentration in the assay well) and 50 nl was acoustically transferred to the appropriate well in the assay cell plate. The plates were then incubated for 60 minutes at 37 degrees in a 5% CO2 incubator. 10 μl of detection buffer (also prepared as described in the IP-One kit) was added to each well and the plates were incubated at room temperature for 60 minutes in the dark. The plates were then read in a Perkin ElmerEnVision or equivalent reader able to measure FRET. Fluorescent ratio of emission at 665 and 620 nm was then converted to the IP1 concentration by back calculating from an IP1 standard curve prepared at the time of the assay. The data was normalized to % activity using a reference compound, and the EC50 values were determined using a standard 4-parameter fit.

| Compound | EC50 [nM] |
| --- | --- |
| Oc1cc(-c2cnc(O[C@H]3C[C@@H](Oc4ccc(F)c(Cl)c4)C3)cn2)on1 [Example 63, ammonium 5-(5-{[cis-3-(3-chloro-4-fluorophenoxy)cyclobutyl]-oxy}pyrazin-2-yl)isoxazol-3-olate] | 53 |
| Oc1cc(-c2cnc(O[C@H]3C[C@@H](c4ccc(C(F)(F)F)cn4)C3)cn2)on1 [Example 25, 5-[5-({cis-3-[5-(trifluoromethyl)pyridin-2-yl]cyclobutyl}oxy)pyrazin-2-yl]isoxazol-3-ol] | 46 |
| CCc1ccc([C@H]2C[C@@H](Oc3ccc(-c4onc(O)c4F)cn3)C2)cc1 [Example 13, ammonium 5-(6-{[cis-3-(4-ethylphenyl)cyclobuty]oxy}pyridin-3-yl)-4-fluoroisoxazol-3-olate] | 181 |
| Oc1cc(-c2ccc(O[C@H]3C[C@@](F)(c4ccc(C(F)F)c(F)c4)C3)nc2)on1 [Example 103, 5-[6-({trans-3-[4-(difluoromethyl)-3-fluorophenyl]-3-fluorocyclobutyl}oxy)pyridin-3-yl)isoxazol-3-ol] | 40 |
| Oc1cc(-c2ccc(O[C@H]3C[C@@H](c4cc(OC(F)(F)F)ccc4F)C3)nc2)on1 [Example 11, ammonium 5-[6-({cis-3-[2-fluoro-5-(trifluoromethoxy)phenyl]cyclo-butyl}oxy)pyridin-3-yl]isoxazol-3-olate] | 112 |
| Oc1cc(-c2ccc(OC3CCC(c4cccc(OC(F)(F)F)c4)C3)nc2)on1 (single isomer, unassigned) [Example 118] | 34 |
| Oc1cc(-c2cnc(O[C@H]3C[C@@H](COc4ccc(F)cc4)C3)cn2)on1 [Example 65, sodium 5-[5-({cis-3-[(4-fluorophenoxy)methyl]-cyclobutyl}oxy)pyrazin-2-yl]isoxazol-3-olate] | 5.8 |
| Oc1cc(-c2cnc(O[C@H]3C[C@@H](COc4cccc(F)c4)C3)cn2)on1 [Example 84, sodium 5-[5-({cis-3-[(3-fluorophenoxy)methyl]cyclobutyl}oxy)pyrazin-2-yl]isoxazol-3-olate] | 12 |
| Oc1cc(-c2ccc(O[C@H]3C[C@H](c4ncc(C(F)(F)F)cc4F)C3)nc2)on1 [Example 8, sodium 5-[6-({trans-3-[3-fluoro-5-(trifluoromethyl)pyridin-2-yl]-cyclobutyl}oxy)pyridin-3-yl]isoxazol-3-olate] | 303 |
| Oc1cc(-c2ccc(O[C@H]3C[C@@H](C4CCCCC4)C3)nc2)on1 [Example 37, 2-[(cis-3-cyclohexylcyclobutyl)oxy]-5-(3-hydroxyisoxazol-5-yl)pyridinium chloride] | 161 |
| Oc1cc(-c2cnc(O[C@H]3C[C@@H](Oc4ccc(F)c(C(F)(F)F)c4)C3)cn2)on1 [Example 70, 5-[5-({cis-3-[4-fluoro-3-(trifluoromethyl)phenoxy]cyclobutyl}oxy)pyrazin-2-yl]isoxazol-3-ol] | 24 |
| Oc1cc(-c2cnc(O[C@H]3C[C@@H](c4cccc(OC(F)F)c4F)C3)cn2)on1 [Example 41, 5-[5-({cis-3-[3-(difluoromethoxy)-2-fluorophenyl]cyclobutyl}oxy)pyrazin-2-yl]isoxazol-3-ol] | 17 |
| Oc1cc(-c2ccc(OC3CCC(c4cccc(OC(F)(F)F)c4)C3)nc2)on1 (single isomer, unassigned) [Example 119, 5-(6-((3-(3-(trifluoromethoxy)phenyl)cyclopentyl)oxy)pyridin-3-yl)isoxazol-3-ol] | 12 |
| Oc1cc(-c2ccc(OC3CC(OCc4cc(F)ccc4C(F)(F)F)C3)nc2)on1 (mixture of isomers) [Example 76, ammonium 5-{6-[(cis-3-{[5-fluoro-2-(trifluoromethyl)benzyl]oxy}cyclobutyl)oxy]pyridin-3-yl)isoxazol-3-olate (mixture of isomers predominantly cis)] | 138 |

The remaining molecules from weak to strong by EC50, led by results:

| EC50 [nM] | Compound |
| --- | --- |
| 305 | CC(OC1CC(Oc2ccc(-c3cc(O)no3)cn2)C1)c1ccccc1 (mixture of isomers) [Example 78, 5-(6-{[3-(1-phenylethoxy)cyclobuty]oxy}pyridin-3-yl)isoxazol-3-ol (mixture of isomers)] |
| 215 | Oc1cc(-c2cnc(O[C@H]3C[C@@](F)(c4cc(C(F)(F)F)ccc4F)C3)cn2)on1 [Example 107, 5-[5-({trans-3-fluoro-3-[2-fluoro-5-(trifluoromethyl)phenyl]cyclobutyl}oxy)pyrazin-2-yl]isoxazol-3-ol] |
| 191 | Cc1ccc([C@H]2C[C@@H](Oc3ncc(-c4cc(O)no4)cn3)C2)c(F)c1 [Example 114, sodium 5-(2-{[cis-3-(2-fluoro-4-methylphenyl)cyclobutyl]oxy}pyrimidin-5-yl)isoxazol-3-olate] |
| 104 | Cc1ccc([C@H]2C[C@H](Oc3cnc(-c4cc(O)no4)cn3)C2)c(F)c1 [Example 47, 5-(5-{[trans-3-(2-fluoro-4-methylphenyl)cyclobutyl]oxy}pyrazin-2-yl)isoxazol-3-ol] |
| 60 | Oc1cc(-c2ccc(O[C@H]3C[C@@](F)(c4ccc5c(c4)OC(F)(F)O5)C3)nc2)on1 [Example 104, ammonium 5-(6-{[trans-3-(2,2-difluoro-1,3-benzodioxol-5-yl)-3-fluorocyclobutyl]oxy}pyridin-3-yl)isoxazol-3-olate] |
| 48 | Oc1cc(-c2cnc(O[C@H]3C[C@@H](c4cc(OC5CC5)ccc4F)C3)cn2)on1 [Example 39, 5-[5-({cis-3-[5-(cyclopropyloxy)-2-fluorophenyl]cyclobutyl}oxy)pyrazin-2-yl]isoxazol-3-ol] |
| 40 | Oc1cc(-c2ccc(O[C@H]3C[C@@H](OCc4ccc(F)c(F)c4)C3)nc2)on1 [Example 62, 2-({cis-3-[(3,4-difluorobenzyl)oxy]cyclobutyl}oxy)-5-(3-hydroxy-isoxazol-5-yl)pyridinium trifluoroacetate] |
| 34 | Oc1cc(-c2cnc(O[C@H]3C[C@@H](c4ccc(F)cc4)C3)cn2)on1 [Example 10, sodium 5-(5-{[cis-3-(4-fluorophenyl)cyclobutyl]oxy}pyrazin-2-yl)isoxazol-3-olate] |
| 23 | Oc1cc(-c2cnc(O[C@H]3C[C@@H](c4c(F)cc(OC(F)F)cc4F)C3)cn2)on1 [Example 50, ammonium 5-[5-({cis-3-[4-(difluoromethoxy)-2,6-difluorophenyl]cyclobutyl}oxy)pyrazin-2-yl]isoxazol-3-olate] |
| 23 | Oc1cc(-c2cnc(OC3CC(OCC4CCCCC4)C3)cn2)on1 (mixture of isomers) [Example 80, 5-(5-{[cis-3-(cyclohexylmethoxy)cyclobutyl]oxy}pyrazin-2-yl)isoxazol-3-ol (mixture of isomers predominantly cis)] |
| 22 | Oc1cc(-c2ccc(O[C@H]3C[C@@](F)(c4ccc(C(F)(F)F)cn4)C3)nc2)on1 [Example 97, 2-(trans-1-fluoro-3-{[5-(3-hydroxyisoxazol-5-yl)pyridin-2-yl]oxy}cyclobutyl)-5-(trifluoromethyl)pyridinium trifluoroacetate] |
| 17 | Oc1cc(-c2cnc(O[C@H]3C[C@@H](c4ccc(Cl)cc4)C3)cn2)on1 [Example 38, sodium 5-(5-{[cis-3-(4-chlorophenyl)cyclobutyl]oxy}pyrazin-2-yl)isoxazol-3-olate] |
| 9.7 | Oc1cc(-c2cnc(O[C@H]3C[C@@H](c4c(F)cc(Cl)cc4F)C3)cn2)on1 [Example 49, ammonium 5-(5-{[cis-3-(4-chloro-2,6-difluorophenyl)-cyclobutyl]oxy}pyrazin-2-yl)isoxazol-3-olate] |
